From PubChem BioAssay (NCI)
Where “and” joins values, the source holds several entries; their conditions need not be identical. Equal entries are not always repeated.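 Following 48 hours of exposure in 96-well plates, responses at five concentrations were used to interpolate endpoints linearly. Abbreviation: GI50, concentration required for 50% inhibition of growth. At the TGI there is no net growth.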

How the values were obtained:
Test in all cases: growth of human tumour cells (NCI), 48 h
SK-MEL-2 melanoma = tested on: SK-MEL-2 melanoma
786-0 renal = tested on: 786-0 renal
UACC-257 melanoma = tested on: UACC-257 melanoma
SF-268 CNS = tested on: SF-268 CNS
HOP-62 NSCLC = tested on: HOP-62 NSCLC
MALME-3M melanoma = tested on: MALME-3M melanoma
HCC-2998 colon = tested on: HCC-2998 colon
OVCAR-4 ovarian = tested on: OVCAR-4 ovarian
HT29 colon = tested on: HT29 colon
SN12C renal = tested on: SN12C renal

SMILES	TGI (SK-MEL-2 melanoma)	TGI (786-0 renal)	TGI (UACC-257 melanoma) [µM]	TGI (SF-268 CNS)	TGI (HOP-62 NSCLC) [µM]	TGI (MALME-3M melanoma) [µM]	TGI (HCC-2998 colon)	TGI (OVCAR-4 ovarian) [µM]	TGI (HT29 colon) [µM]	TGI (SN12C renal) [µM]	GI50 (SK-MEL-2 melanoma) [µM]	GI50 (786-0 renal)	GI50 (UACC-257 melanoma)	GI50 (SF-268 CNS)	GI50 (HOP-62 NSCLC)	GI50 (MALME-3M melanoma) [µM]	GI50 (HCC-2998 colon)	GI50 (OVCAR-4 ovarian) [µM]	GI50 (HT29 colon) [µM]	GI50 (SN12C renal) [µM]
Cc1cc(=O)oc2c(C3=NN(C=O)C(c4ccccc4)C3)c(O)ccc12 (stereo unspecified)	> 100 µM	81.4 µM	> 100	> 100 µM	91.4	> 85	> 100 µM	> 100	> 100	> 100	–	–	–	–	–	–	–	–	–	–
COc1ccc(-n2cc(-c3cc(OC)c(OC)c(OC)c3)nc2SCc2ccc(Cl)cc2)cc1OC	> 100 µM	> 100 µM	> 100	> 100 µM	> 100	> 100	> 100 µM	> 100	> 100	> 100	> 100	> 100 µM	> 100 µM	> 100 µM	> 100 µM	> 100	> 100 µM	71.9	> 100	> 100
C=C1CCC2CC1C(C(=O)c1c[nH]c3ccccc13)=NC2(C)C (stereo unspecified)	–	> 100 µM	> 100	> 100 µM	> 100	> 100	> 100 µM	> 100	> 100	> 100	–	–	–	–	–	–	–	–	–	–
O/N=C1/CCC/C1=C\c1ccccc1	> 100 µM	> 100 µM	> 100	> 100 µM	> 100	> 100	> 100 µM	> 100	–	> 100	–	–	–	–	–	–	–	–	–	–
CC(=O)Nc1ccccc1-c1nc2ccccc2nc1-c1ccccc1	> 100 µM	> 100 µM	> 100	–	> 100	–	> 100 µM	> 100	> 100	> 100	–	–	–	–	–	–	–	–	–	–
CCCCCC/C=C/C#CCCCCCCCC(=O)O	> 100 µM	> 100 µM	> 100	> 100 µM	–	> 100	> 100 µM	> 100	> 100	> 100	–	–	–	–	–	–	–	–	–	–
O=C1/C(=C/c2cccnc2)SC(=S)N1Cc1ccco1	> 27.2 µM	> 40.8 µM	> 31.5	> 23.9 µM	27.1	> 43.5	–	77.6	> 100	45	–	–	–	–	–	–	–	–	–	–
CC(Oc1cc2oc(=O)cc(-c3ccccc3)c2cc1Cl)C(=O)O (stereo unspecified)	–	> 100 µM	> 100	> 100 µM	> 100	> 100	> 100 µM	> 100	> 100	> 100	–	–	–	–	–	–	–	–	–	–
NC(CCSCC(F)(F)F)C(=O)O (stereo unspecified)	–	> 100 µM	> 100	> 100 µM	> 100	> 100	> 100 µM	> 100	> 100	> 100	–	–	–	–	–	–	–	–	–	–
Cc1ccc2c(c1)[n+](=O)c(C(=O)c1cccs1)c(C(F)(F)F)n2[O-]	50 µM and 18.6 µM	50 µM and 12.4 µM	–	3.31 µM and 0.511 µM	–	–	2.1 µM and 0.559 µM	–	50	1.97	–	4.85 µM and 1.05 µM	2.28 µM and 0.237 µM	0.881 µM and 0.108 µM	2.39 µM and 0.689 µM	–	0.638 µM and 0.238 µM	–	2.76	0.796
Oc1ccc2ccccc2c1CCc1c(O)ccc2ccccc12	–	34.9 µM	27.2	25.2 µM	28.2	26.9	21.8 µM	–	18.6	23.3	–	–	–	–	–	–	–	–	–	–
O=C1OC(CC(=O)c2ccc(F)cc2)C(Cl)=C1Cl (stereo unspecified)	45 µM	34.3 µM	33.6	–	72.5	33.8	30.1 µM	43.5	32.1	35.3	–	–	–	–	–	–	–	–	–	–
Nc1n[n+]([O-])c2cc([N+](=O)[O-])ccc2[n+]1[O-]	36.3 µM	17.3 µM	27.1	–	22.3	–	–	10.2	10.1	18.1	–	–	–	–	–	–	–	–	–	–
C[C@@H](C1CC[C@H]2[C@@H]3[C@@H]4O[C@@H]4[C@@]4(O)CC=CC(=O)[C@]4(C)[C@H]3C[C@H](O)[C@]12C)[C@H]1C[C@]2(C)O[C@]2(C)C(=O)O1 (stereo partly specified)	> 100 µM	> 100 µM	> 100	> 100 µM	–	> 100	> 100 µM	> 100	> 100	> 100	–	–	–	–	–	–	–	–	–	–
OCC1NC(COC2OC(CO)C(O)C(O)C2O)C(O)C(O)C1O (stereo unspecified)	> 100 µM	> 100 µM	> 100	> 100 µM	–	> 100	> 100 µM	> 100	> 100	> 100	–	–	–	–	–	–	–	–	–	–
CC(=O)OC1C[C@H]2C(OC(=O)c3ccccc3)C3C4(OC(C)=O)COC4C[C@H](OC(C)=O)[C@@]3(C)C(OC(C)=O)[C@H](OC(C)=O)C(=C1C)C2(C)C (stereo partly specified)	97.8 µM	> 100 µM	> 100	> 100 µM	> 100	> 100	–	> 100	> 100	> 100	–	–	–	–	–	–	–	–	–	–
